# Experimental data taken from BindingDB's records for doi:10.1021/cb100011u (Academia Sinica, 2010).
# How the values were obtained:
# [1] = target: T1, Protein O-GlcNAcase (Homo sapiens, UniProt O60502); test: Enzyme Inhibition Assay; details: pH 4.25; 30 °C
# T1 sequence (O60502 whole entry): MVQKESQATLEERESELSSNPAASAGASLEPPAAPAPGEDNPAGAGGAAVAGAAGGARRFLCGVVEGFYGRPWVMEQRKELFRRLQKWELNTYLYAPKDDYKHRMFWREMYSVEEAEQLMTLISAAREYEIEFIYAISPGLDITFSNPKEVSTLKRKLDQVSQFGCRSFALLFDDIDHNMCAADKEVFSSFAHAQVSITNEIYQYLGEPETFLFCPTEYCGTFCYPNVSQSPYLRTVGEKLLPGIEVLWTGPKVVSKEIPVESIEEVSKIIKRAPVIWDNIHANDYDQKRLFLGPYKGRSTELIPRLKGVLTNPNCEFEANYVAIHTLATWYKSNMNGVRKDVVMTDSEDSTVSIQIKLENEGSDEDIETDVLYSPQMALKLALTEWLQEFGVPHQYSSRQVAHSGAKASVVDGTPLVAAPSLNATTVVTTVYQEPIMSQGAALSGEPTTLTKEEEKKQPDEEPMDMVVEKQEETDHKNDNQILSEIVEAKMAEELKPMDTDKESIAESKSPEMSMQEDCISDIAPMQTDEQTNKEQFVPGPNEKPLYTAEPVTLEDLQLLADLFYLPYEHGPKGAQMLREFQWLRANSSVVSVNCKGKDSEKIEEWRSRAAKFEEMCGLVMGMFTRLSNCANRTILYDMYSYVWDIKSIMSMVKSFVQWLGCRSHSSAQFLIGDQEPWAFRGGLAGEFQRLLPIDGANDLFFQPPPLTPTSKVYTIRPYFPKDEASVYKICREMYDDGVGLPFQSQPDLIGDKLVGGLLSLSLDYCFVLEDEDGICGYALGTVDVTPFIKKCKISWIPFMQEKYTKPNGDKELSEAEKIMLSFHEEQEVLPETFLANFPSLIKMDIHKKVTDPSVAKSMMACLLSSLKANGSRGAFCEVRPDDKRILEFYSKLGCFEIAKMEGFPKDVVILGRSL
# Source text: (§1) Enzyme inhibition activity assay using 4-methylumbelliferyl N-acetylglucosamine (MUG) as substrate.
# [2] = target: T2, Beta-hexosaminidase subunit beta (Homo sapiens, UniProt P07686); test: Enzyme Inhibition Assay; details: pH 4.25; 30 °C
# T2 sequence (P07686 whole entry): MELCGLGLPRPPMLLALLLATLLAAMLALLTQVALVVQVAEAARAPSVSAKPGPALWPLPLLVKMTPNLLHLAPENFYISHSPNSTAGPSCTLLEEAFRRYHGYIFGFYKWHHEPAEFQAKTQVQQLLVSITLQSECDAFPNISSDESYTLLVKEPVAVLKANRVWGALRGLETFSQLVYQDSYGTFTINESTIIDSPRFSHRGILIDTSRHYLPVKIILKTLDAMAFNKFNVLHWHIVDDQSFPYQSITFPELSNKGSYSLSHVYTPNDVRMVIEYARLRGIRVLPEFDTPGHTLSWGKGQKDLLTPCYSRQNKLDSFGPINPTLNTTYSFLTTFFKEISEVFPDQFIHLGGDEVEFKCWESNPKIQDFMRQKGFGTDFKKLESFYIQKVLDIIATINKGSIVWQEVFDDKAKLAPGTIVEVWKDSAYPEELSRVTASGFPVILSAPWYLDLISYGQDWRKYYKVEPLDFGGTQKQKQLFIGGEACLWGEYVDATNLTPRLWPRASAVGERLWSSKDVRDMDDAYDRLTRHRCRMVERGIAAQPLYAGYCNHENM
# Source text: as §1
smiles,measurement,setting,value
CC(=O)N[C@H]1CN[C@H](CO)[C@@H](O)[C@@H]1O,Ki,[1],23.6 µM
same,Ki,[2],0.54 µM
